# According to patent US20240186515A1, “ELECTROLYTE SOLUTION FOR REDOX FLOW BATTERY INCLUDING ORGANIC ACTIVE MATERIAL AND REDOX FLOW BATTERY USING THE SAME” (priority 2022, published 2024):
# Assay: Cyclic voltammetry of electrolyte solution
# Assay type: physicochemical
# Conditions: for Number of reaction electrons: reversibly usable electrons
# Text: For analysis of electrochemical properties of an electrolyte solution, cyclic voltammetry (CV) was used. The cyclic voltammetry is an electrochemical measurement method which is commonly used a lot, and is a method of obtaining a current-potential curve by scanning an electrode potential of a working electrode with a triangular wave at a constant speed. A method of recording a current flowing when potential is changed in proportion to time as a potential-current curve is called a potential sweep method, and when the potential is repeatedly applied, it is called cyclic voltammetry. The cyclic voltammetry allows qualitative understanding of a reaction occurring on an electrode surface such as potential at the reaction occurs, reaction speed, and reactivity of a reaction product, and is widely used in the electrochemical field.
# During cyclic voltammetry measurement, a potential scanning speed was applied at 10 to 300 mV/s, and the measurement results are shown in FIGS. 1 to 3.
# [1] = 0.01 M in 1 M Na2SO4, glassy carbon working electrode
Structure (SMILES),Negative electrode one-electron reaction potential [1],"Reduction and oxidation currents, negative electrode area, first electron reaction (FIG. 1, text)","Reduction and oxidation currents, negative electrode area, second electron reaction (FIG. 1, text)",Reversibility of second electron (two-electron) reaction in negative electrode area (cyclic voltammetry curves),Positive electrode reaction potential [1],"Two-electron reduction and oxidation currents derived from hydroquinone, positive electrode area (FIG. 1, text)",Number of reaction electrons,Negative electrode two-electron reaction potential [1],"Reversibility in positive electrode area (cyclic voltammetry curves, 100 mV s^−1, FIG. 3)"
"C[n+]1ccc(-c2cc[n+](C)cc2)cc1.O.[Cl-].[Cl-] [Comparative Example 1, methyl viologen dichloride hydrate]",−0.54 V vs. NHE,around −0.54 V,~−0.75 V,irreversible,–,–,–,–,–
C[n+]1ccc(-c2cc[n+](-c3cc(O)ccc3O)cc2)cc1 [Comparative Example 2],−0.34 V vs. NHE,around −0.34 V,~−0.65 V,did not reach a target level,0.59 V vs. NHE,0.59 V,1,–,–
C[N+](C)(C)CCC[n+]1ccc(-c2cc[n+](-c3cc(O)ccc3O)cc2)cc1 [Example 1],−0.48 V vs. NHE,–,–,showed a reversible shape,0.46 V vs. NHE,–,2,−0.80 V vs. NHE,reversible behavior was shown
